Data taken from patent publication US20220313639A1, “MITOCHONDRIAL FUNCTION ACTIVATOR” (Yuki Gosei Kogyo Co., Ltd., priority 2019, published 2022).
Read-outs that look alike come from different tables or passages of the source.

Tests used:
[1] = test system: undifferentiated mouse skeletal muscle-derived myoblast line, C2C12 cells; details: vs 1×PBS control
Method: (§1) C2C12 cells were subcultured at 37° C. in the presence of 5% CO2, using Dulbecco's Modified Eagle Medium (DMEM) (Nissui, Tokyo, Japan) containing 10% inactivated FBS, penicillin (100,000 U/L; Meiji, Tokyo, Japan), streptomycin (100 mg/L: Meiji), NaHCO3 (2.0 g/L: Wako, Osaka, Japan), and L-glutamine (Wako).
The number of mitochondria in C2C12 cells was measured as follows.
(§2) C2C12 cells were seeded in 6-well plates at 4.0×10^5 cells/well, and after 24 hours, β-alanine was added thereto at a concentration of 500 μM or 1 mM. In addition, 1×PBS was added to as a control well. After 2 hours from the above addition, the medium was removed by suction, and 2 mL/well of Mito Tracker Green FM (Invitrogen) which is diluted to 200 nM in DMEM medium containing 10% FBS, was added. Then, the whole was incubated for 30 minutes at 37° C. in the presence of 5% CO2 under shading. Then, the diluted solution was removed by suction, and 1×PBS was added at 1 mL/well to wash the cells. 1×PBS was removed by suction and trypsin was added at 500 μL/well. Then, trypsin was removed by suction and incubated at 37° C. in the presence of 5% CO2 for 5 minutes under shading. After incubation, the cells were suspended to 1 mL of DMEM medium containing 10% FBS to be collected in a 1.5 mL tube. After passing this cell suspension through a nylon mesh (Kyoshin Riko, Tokyo, Japan), the cells were measured by a flow cytometer (EPICS XL System II-JK, Beckman Coulter, CA, USA; Cell Analyzer EC800 CSC, Sony, Tokyo, Japan). The analysis was performed at the FCM analysis software FlowJo (TOMY Digital Biology, Tokyo, Japan).
(§3) In addition, cells were seeded, and β-alanine was added thereto at a concentration of 100 μM or 1 mM. After 24 hours, β-alanine was secondary added, and the medium was aspirated after 24 hours of the second addition. Using the above cells treated with β-alanine for 48 hours as cells to which the diluted solution of Mito Tracker Green FM (Invitrogen) was added, the same procedure as the cells treated with β-alanine for 2 hours was repeated.
Mito Tracker Green FM (Invitrogen) is a fluorescent reagent that stains mitochondria independently of the membrane potential.
(§4) The procedure described in Example 1 was repeated, except that glycine was used instead of β-alanine.

Pgc-1α gene = details: differentiated C2C12 cells, 48 hours, relative to β-actin, ΔΔCt method
[2] = test system: C2C12 cells differentiated into myotube cells
Method: as §2
(§5) In addition, cells were seeded, and β-alanine was added thereto at a concentration of 100 μM or 1 mM. […]

[3] = test system: undifferentiated mouse skeletal muscle-derived myoblast line, C2C12 cells; details: for mitochondrial activation (Mito Tracker Red CMXRos): vs 1×PBS control
Method: as §1
as §2, with “The number of activated mitochondria in C2C12 cells was measured as follows. C2C12” for “C2C12”, “Red CMXRos (Invitrogen)” for “Green FM”, “250” for “200”, “tube.” for “tube. After passing this cell suspension through a nylon mesh (Kyoshin Riko, Tokyo, Japan), the cells were measured by a flow cytometer (EPICS XL System II-JK, Beckman Coulter, CA, USA; Cell Analyzer EC800 CSC, Sony, Tokyo, Japan). The analysis was performed at the FCM analysis software FlowJo (TOMY Digital Biology, Tokyo, Japan).”
(§6) After passing this cell suspension through a nylon mesh (Kyoshin Riko), the cells were measured by a flow cytometer (EPICS XL System II-JK, Beckman Coulter, CA, USA; Cell Analyzer EC800 CSC, Sony). The analysis was performed at the FCM analysis software FlowJo (TOMY Digital Biology, Tokyo, Japan).
as §3, with “Red CMXRos” for “Green FM”
On the other hand, Mito Tracker Red CMXRos (Invitrogen) is a fluorescent reagent that stains mitochondria in a membrane potential-dependent manner. Therefore,
when a peak of the flow cytometer histogram shifts to the right by the addition of β-alanine, it indicates mitochondrial activity was enhanced.
as §4
The cells were prepared by repeating the procedure of Mito Tracker Red CMX Ros in Example 1 except that the treatment with β-alanine was set to 72 hours.

[4] = test system: C2C12 cells differentiated into myotube cells; remark: listed apart in the source
Method: as §2, with “The number of activated mitochondria in C2C12 cells was measured as follows. C2C12” for “C2C12”, “Red CMXRos (Invitrogen)” for “Green FM”, “250” for “200”, “tube.” for “tube. After passing this cell suspension through a nylon mesh (Kyoshin Riko, Tokyo, Japan), the cells were measured by a flow cytometer (EPICS XL System II-JK, Beckman Coulter, CA, USA; Cell Analyzer EC800 CSC, Sony, Tokyo, Japan). The analysis was performed at the FCM analysis software FlowJo (TOMY Digital Biology, Tokyo, Japan).”
as §6, §5

[5] = test system: undifferentiated mouse skeletal muscle-derived myoblast line, C2C12 cells; details: 48 hours
Method: In this example, mitochondrial activation was examined by using a confocal laser scanning microscope.
The cells treated with β-alanine for 48 hours were prepared by the same procedure as in Example 1. C2C12 cells were seeded at a concentration of 3.0×10^4 cells/mL or 5.0×10^4 cell s/mL, and Mito Tracker Green FM (Invitrogen) and Mito Tracker Red CMXRos (Invitrogen) were added simultaneously. The resulting cells were observed under a confocal laser scanning microscope (Olympus).

Acaa1b gene = details: differentiated C2C12 cells; 500 μM
Method: (§7) In this example, the transcription of the genes for Acaa1b and Acaa2 in β-alanine-treated mouse skeletal muscle-derived myoblast line, C2C12 cells was measured.
(§8) The procedure described in Example 4 was repeated except that the Acaa1b forward primer and the Acaa1b reverse primer, or the Acaa2 forward primer and the Acaa2 reverse primer were used instead of the Pgc-1α forward primer and the Pgc-1α reverse primer.

Acaa2 gene = details: differentiated C2C12 cells; 500 μM
Method: as §7, §8

[6] = treatment time 2 hours, 500 μM or 1 mM
[7] = treatment time 48 hours, 100 μM or 1 mM

`NCC(=O)O` [glycine] was tested, and the “number of mitochondria (Mito Tracker Green FM)” value (from here on “number of mitochondria”) [1, 6] was “increased in a concentration-dependent manner”, the “number of mitochondria” value [1, 7] was “increased in a concentration-dependent manner” and the “expression of Pgc-1α” value (Pgc-1α gene; 500 μM) was “enhanced the expression”. For the same molecule, the “number of mitochondria” value ([2]; treatment time 2 hours) was “increased in a concentration-dependent manner”, the “number of mitochondria” value ([2]; treatment time 48 hours) was “increased in a concentration-dependent manner” and the “mitochondrial activation (Mito Tracker Red CMXRos)” value (“mitochondrial activation” below) [3, 6] was “mitochondrial activation was confirmed”. For the same molecule, the “mitochondrial activation” value [3, 7] was “mitochondrial activation was confirmed”, the “mitochondrial activation” value ([4]; treatment time 2 hours) was “mitochondrial activation was confirmed” and the “mitochondrial activation” value ([4]; treatment time 48 hours) was “mitochondrial activation was confirmed”.
For `NCCC(=O)O` [β-alanine, 3-aminopropanoic acid], the “red fluorescence of Mito Tracker Red CMX Ros (confocal microscope)” value ([5]; 500 μM) was “strengthened the red fluorescence”, the “red fluorescence of Mito Tracker Red CMX Ros (confocal microscope)” value ([5]; 1 mM) was “further strengthened the red fluorescence” and the “number of mitochondria” value [1, 6] was “increased in a concentration-dependent manner”. The “number of mitochondria” value [1, 7] was “increased in a concentration-dependent manner”, the “expression of Pgc-1α” value (Pgc-1α gene; 500 μM) was “enhanced the expression” and the “expression of Pgc-1α” value (Pgc-1α gene; 1 mM) was “enhanced the expression”. The “fluorescence of Mito Tracker Red (flow cytometry)” value ([3]; treatment 72 hours) was “increased the fluorescence”, the “mitochondrial activation” value [3, 6] was “mitochondrial activation was confirmed” and the “mitochondrial activation” value [3, 7] was “mitochondrial activation was confirmed”. The “expression of Acaa1b” value (Acaa1b gene) was “enhanced the expression” and the “expression of Acaa2” value (Acaa2 gene) was “enhanced the expression”.
